# Legend:
# DGKζ = DGKζ (Homo sapiens (Human), UniProt Q13574); test: Biochemical DGK IC50 assay, DGKζ ADP-Glo assay; settings: 0.5 nM enzyme, 140 μM ATP, 80 μM DAG; read-out: DGKζ ADP-Glo assay IC50
# Procedure, shortened: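 Full-length human DGKζ, His-TEV tagged and purified from baculovirus-infected Sf9 cells, assayed by ADP-Glo with DAG/PS lipid micelle substrate prepared in 25 mM HEPES pH 7.0 with octyl glucoside. Final compound concentrations spanned 1.55–10000 nM or 23.3–150000 nM.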
# DGKα = DGKα (Homo sapiens (Human), UniProt P23743); test: Biochemical DGK IC50 assay, DGKα ADP-Glo assay; settings: 7.5 nM enzyme, 140 μM ATP, 80 μM DAG
# Procedure, shortened: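 ADP-Glo read-out with full-length DGKα on DAG/PS lipid micelle substrate in 25 mM HEPES pH 7.0, 0.5 mM EDTA, 160 mM octyl β-D-glucopyranoside. Compound final concentrations spanned 1.55˜10000 nM or 23.3˜150000 nM.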
# Chain of DGKα (P23743 whole entry): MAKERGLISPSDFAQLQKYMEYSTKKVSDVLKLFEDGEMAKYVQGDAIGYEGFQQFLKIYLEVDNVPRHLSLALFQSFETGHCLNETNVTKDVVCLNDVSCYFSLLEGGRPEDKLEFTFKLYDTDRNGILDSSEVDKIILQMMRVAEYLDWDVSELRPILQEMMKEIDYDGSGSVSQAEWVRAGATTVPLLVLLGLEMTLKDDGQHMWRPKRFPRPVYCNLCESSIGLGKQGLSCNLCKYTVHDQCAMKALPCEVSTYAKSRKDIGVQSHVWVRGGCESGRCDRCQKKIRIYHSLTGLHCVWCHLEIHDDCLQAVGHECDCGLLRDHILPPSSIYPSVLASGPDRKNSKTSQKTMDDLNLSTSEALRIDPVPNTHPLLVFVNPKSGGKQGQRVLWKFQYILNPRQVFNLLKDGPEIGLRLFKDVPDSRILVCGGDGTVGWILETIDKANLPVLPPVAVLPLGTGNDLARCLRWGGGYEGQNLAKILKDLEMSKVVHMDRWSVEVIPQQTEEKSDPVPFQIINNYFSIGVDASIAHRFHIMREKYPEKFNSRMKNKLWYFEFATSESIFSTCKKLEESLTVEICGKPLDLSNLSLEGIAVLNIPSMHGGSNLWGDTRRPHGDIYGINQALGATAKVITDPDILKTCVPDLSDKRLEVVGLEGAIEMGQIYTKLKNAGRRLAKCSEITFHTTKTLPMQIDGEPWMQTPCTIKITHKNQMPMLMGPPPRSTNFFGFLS
# Chain of DGKζ (Q13574 other isoform, or with tags, fused parts or gaps): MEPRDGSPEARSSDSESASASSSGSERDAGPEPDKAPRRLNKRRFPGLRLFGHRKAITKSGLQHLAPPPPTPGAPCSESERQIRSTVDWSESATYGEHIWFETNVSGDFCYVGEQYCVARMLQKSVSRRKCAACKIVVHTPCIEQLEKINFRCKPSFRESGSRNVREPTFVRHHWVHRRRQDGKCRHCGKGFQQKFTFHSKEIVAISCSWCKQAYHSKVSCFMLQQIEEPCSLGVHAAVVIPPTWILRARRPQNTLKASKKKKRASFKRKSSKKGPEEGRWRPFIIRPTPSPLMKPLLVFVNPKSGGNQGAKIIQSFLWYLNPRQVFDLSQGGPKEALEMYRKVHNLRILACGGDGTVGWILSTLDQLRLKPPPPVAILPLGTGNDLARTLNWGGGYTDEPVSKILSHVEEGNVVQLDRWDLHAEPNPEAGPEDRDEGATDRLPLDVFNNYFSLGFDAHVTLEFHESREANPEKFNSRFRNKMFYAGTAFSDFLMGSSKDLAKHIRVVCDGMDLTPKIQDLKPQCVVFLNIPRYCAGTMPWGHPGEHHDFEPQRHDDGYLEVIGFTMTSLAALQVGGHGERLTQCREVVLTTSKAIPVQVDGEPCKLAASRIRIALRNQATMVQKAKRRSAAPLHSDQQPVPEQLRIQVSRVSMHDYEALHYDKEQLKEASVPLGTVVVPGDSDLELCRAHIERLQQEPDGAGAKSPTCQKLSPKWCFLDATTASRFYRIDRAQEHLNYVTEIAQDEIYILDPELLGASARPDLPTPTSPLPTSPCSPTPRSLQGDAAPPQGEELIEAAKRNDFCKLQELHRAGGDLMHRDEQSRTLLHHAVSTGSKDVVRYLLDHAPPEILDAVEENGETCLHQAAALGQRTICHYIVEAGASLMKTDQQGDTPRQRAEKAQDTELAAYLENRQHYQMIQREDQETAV
SMILES,IC50 (DGKζ),IC50 (DGKα)
"CC[C@H]1CN(C(C)c2nc3ccccc3n2CC)[C@H](CC)CN1c1cc(=O)n(C)c2cn(CC#N)nc12 (stereo partly drawn) [Compound A144, 2-(7-((2S,5R)-2,5-diethyl-4-(1-(1-ethyl-1H-benzo[d]imidazol-2-yl)ethyl)piperazin-1-yl)-4-methyl-5-oxo-4,5-dihydro-2H-pyrazolo[4,3-b]pyridin-2-yl)acetonitrile]",42 nM,105000 nM
"CC[C@H]1CN(C(C)c2cnc(C)c(C)n2)[C@H](CC)CN1c1cc(=O)n(C)c2cn(CC#N)nc12 (single isomer, unassigned) [Compound A355b]",176 nM,2150 nM
"CC[C@@H]1CN(c2cc(=O)n(C)c3cn(CC#N)nc23)[C@@H](COC)CN1C(C)c1ccc2nccnc2c1 (stereo partly drawn) [Compound A225, 2-(7-((2R,5R)-5-ethyl-2-(methoxymethyl)-4-(1-(quinoxalin-6-yl)ethyl)piperazin-1-yl)-4-methyl-5-oxo-4,5-dihydro-2H-pyrazolo[4,3-b]pyridin-2-yl)acetonitrile]",99 nM,7450 nM
"CC(c1ccc2c(n1)OC(C)(C)CO2)N1C[C@H](C)N(c2cc(=O)n(C)c3cn(CC#N)nc23)C[C@H]1C (stereo partly drawn) [Compound A325, 2-(7-((2S,5R)-4-(1-(3,3-dimethyl-2,3-dihydro-[1,4]dioxino[2,3-b]pyridin-6-yl)ethyl)-2,5-dimethylpiperazin-1-yl)-4-methyl-5-oxo-4,5-dihydro-2H-pyrazolo[4,3-b]pyridin-2-yl)acetonitrile]",89 nM,103000 nM
"CC#CCn1cc2c(n1)c(N1C[C@@H](C)N(C(C)c3ccc4ncc(C(F)F)nc4c3)C[C@@H]1C)cc(=O)n2C (stereo partly drawn) [Compound A335, 2-(but-2-yn-1-yl)-7-((2S,5R)-4-(1-(3-(difluoromethyl)quinoxalin-6-yl)ethyl)-2,5-dimethylpiperazin-1-yl)-4-methyl-2,4-dihydro-5H-pyrazolo[4,3-b]pyridin-5-one]",142 nM,610 nM
CC[C@H]1CN(C(C)c2cccc3c2OC(F)(F)O3)[C@H](CC)CN1c1cc(=O)n(C)c2cn(CC#N)nc12 (stereo partly drawn) [Compound A66],409 nM,9840 nM
"CC[C@H]1CN(C(C)c2ccc(C)cc2)[C@H](CC)CN1c1cc(=O)n(C)c2cn(CC#N)nc12 (single isomer, unassigned) [Compound A127a]",84 nM,37 nM
"C[C@@H]1CN(c2cc(=O)n(C)c3c(C(F)(F)F)n(CC#N)nc23)[C@@H](C)CN1[C@@H](C)c1ccc2nccnc2c1 (single isomer, unassigned) [Compound A243, 2-(7-((2S,5R)-2,5-dimethyl-4-((S)-1-(quinoxalin-6-yl)ethyl)piperazin-1-yl)-4-methyl-5-oxo-3-(trifluoromethyl)-4,5-dihydro-2H-pyrazolo[4,3-b]pyridin-2-yl)acetonitrile or 2-(7-((2S,5R)-2,5-dimethyl-4-((R)-1-(quinoxalin-6-yl)ethyl)piperazin-1-yl)-4-methyl-5-oxo-3-(trifluoromethyl)-4,5-dihydro-2H-pyrazolo[4,3-b]pyridin-2-yl)acetonitrile]",1350 nM,> 10000 nM
CC(c1ccc2nccnc2c1)N1C[C@H](C)N(c2cc(=O)n(C)c3cn(CC(N)=O)nc23)C[C@H]1C (stereo partly drawn) [Compound A6],> 150000 nM,> 150000 nM
CC[C@H]1CN(C(C)c2c(F)cncc2F)[C@H](CC)CN1c1cc(=O)n(C)c2cn(CC#N)nc12 (stereo partly drawn) [Compound A87],211 nM,114 nM
"CC[C@H]1CN(C(C)c2ccc3nccnc3c2)[C@H](CC)CN1c1cc(=O)n(CCO)c2cn(CC#N)nc12 (stereo partly drawn) [Compound A95, 2-(7-((2S,5R)-2,5-diethyl-4-(1-(quinoxalin-6-yl)ethyl)piperazin-1-yl)-4-(2-hydroxyethyl)-5-oxo-4,5-dihydro-2H-pyrazolo[4,3-b]pyridin-2-yl)acetonitrile]",53 nM,12200 nM
CC[C@H]1CN(C(C)c2ccc3ncn(C)c3c2)[C@H](CC)CN1c1cc(=O)n(C)c2cn(CC#N)nc12 (stereo partly drawn) [Compound A64],230 nM,2800 nM
"CC#CCn1cc2c(n1)c(N1C[C@@H](CC)N(C(C)c3ccc(C(F)(F)F)cc3F)C[C@@H]1CC)cc(=O)n2C (single isomer, unassigned) [Compound A334b]",> 10000 nM,893 nM
CC#CCn1cc2c(n1)c(N1C[C@@H](CC)N(C(C)c3nc4ccccc4n3CC)C[C@@H]1CC)cc(=O)n2C (stereo partly drawn) [Compound A186],59 nM,6370 nM
"CC[C@@H]1CN(c2cc(=O)n(C)c3cn(CC#N)nc23)[C@@H](C)CN1C(C)c1ccc(C(F)(F)F)cc1F (single isomer, unassigned) [Compound A202a]",176 nM,700 nM
